According to paper PMC4216111, “The Bile Acid-Sensitive Ion Channel (BASIC) Is Activated by Alterations of Its Membrane Environment” (PLoS ONE, 2014):
Like-named read-outs stand apart in the source and are kept apart here.

Tests used:
rat BASIC [1] = target: T1, rat BASIC (Rattus norvegicus, UniProt Q9R0W5); experiment: Two-electrode voltage clamp, Xenopus laevis oocytes expressing rat BASIC; settings: for IC50: read-out: IC50 of BASIC inhibition
T1 sequence (Q9R0W5 1-495): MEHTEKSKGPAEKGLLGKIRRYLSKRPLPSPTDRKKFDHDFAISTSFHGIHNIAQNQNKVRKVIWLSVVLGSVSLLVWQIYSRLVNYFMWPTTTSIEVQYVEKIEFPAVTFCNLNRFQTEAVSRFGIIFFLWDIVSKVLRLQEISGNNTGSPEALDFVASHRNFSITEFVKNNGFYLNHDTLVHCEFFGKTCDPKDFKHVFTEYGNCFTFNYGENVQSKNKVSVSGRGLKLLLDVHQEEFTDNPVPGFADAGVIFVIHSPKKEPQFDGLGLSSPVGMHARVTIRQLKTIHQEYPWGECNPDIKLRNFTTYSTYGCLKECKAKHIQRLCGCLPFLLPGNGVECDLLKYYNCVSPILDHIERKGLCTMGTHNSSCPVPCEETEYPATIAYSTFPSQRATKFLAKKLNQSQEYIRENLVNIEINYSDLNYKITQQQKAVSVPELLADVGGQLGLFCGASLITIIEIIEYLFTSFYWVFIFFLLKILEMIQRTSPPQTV

rat ASIC1a = experiment: Two-electrode voltage clamp, oocytes expressing rat ASIC1a; settings: 400 µM SDS, 500 µM NL, 100 µM Triton-X 100, 2 mM UDCA
[2] = test system: rASIC1a-rBASIC-TM1, -TM2 or -TM; experiment: Two-electrode voltage clamp, chimeras rASIC1a-rBASIC-TM1, -TM2 or -TM; assay type: cell-based, rat; settings: 2 mM UDCA
Text: (§1) Clones for rat BASIC (accession No. NM_022227), mouse BASIC (accession No. NM_021370), rat ASIC1a (accession No. NM_024154) and HyNaC 2, 3 and 5 (accession No. AM393878, AM393880 and FN257513) were described previously, [15], [16]. Chimeras between BASIC and ASIC1a were generated by overlap PCR and PCR fragments were cloned into the expression vector pRSSP6009 [15] using the In-Fusion cloning kit (Invitrogen, Germany). Sequences were confirmed by sequencing. Plasmid DNAs were linearized using the restriction endonucleases MluI or NaeI. cRNA was synthesized from linearized plasmids using the SP6 mMessage mMachine kit (Ambion, USA).
(§2) Chemicals were purchased from Sigma or Merck.

rASIC1a-rBASIC-loop = experiment: Two-electrode voltage clamp, chimera rASIC1a-rBASIC-loop; assay type: cell-based, rat; settings: 2 mM UDCA
Text: as §1, §2

[3] = test system: rASIC1a-rBASIC-loop 1, - 2 and -3; experiment: Two-electrode voltage clamp, chimeras rASIC1a-rBASIC-loop 1, -2 and -3; assay type: cell-based, rat; settings: 2 mM UDCA
Text: as §1, §2

mouse BASIC [4] = experiment: Two-electrode voltage clamp, oocytes expressing mouse BASIC
[5] = test system: rASIC1a rBASIC loop 1–2, rASIC1a rBASIC loop 2–3; experiment: Two-electrode voltage clamp, chimeras rASIC1a rBASIC loop 1–2 and loop 2–3; assay type: cell-based, rat; settings: 2 mM UDCA
Text: as §1, §2

rBASIC-rASIC1a-loop = experiment: Two-electrode voltage clamp, chimera rBASIC-rASIC1a-loop; assay type: cell-based, rat; settings: 2 mM UDCA
Text: as §1, §2

rat BASIC [6] = target: T1, rat BASIC; design: expressed in transfected cells; host or cells: Xenopus laevis oocytes injected with cRNA; settings: cited from earlier work
mouse BASIC [7] = test system: T2, mouse BASIC; design: method as in PMID 21828194; settings: cited from earlier work
T2 construct: expressed in transfected cells; host or cells: Xenopus laevis oocytes injected with cRNA

human BASIC = test system: human BASIC; design: method as in PMID 21828194; settings: cited from earlier work
[8] = Solubility in bath solution; assay type: physicochemical; settings: read-out: solubility limit
non-injected oocytes = experiment: Two-electrode voltage clamp, non-injected control oocytes
[9] = test system: Hydra Na^+ Channel (HyNaC) 2/3/5; experiment: Two-electrode voltage clamp, oocytes expressing HyNaC2/3/5; assay type: cell-based; settings: 400 µM SDS, 500 µM NL, 100 µM Triton-X 100, 5 µM RFamide I
[10] = 2 mM UDCA, 500 µM CPZ, 10 mM TNP, 100 µM Triton-X 100, 500 µM NL, 400 µM SDS, n = 8
[11] = 400 µM SDS, 500 µM NL, 100 µM Triton-X 100, n = 8
[12] = 400 µM SDS, 500 µM N-lauroylsarcosine, 100 µM Triton-X 100, n = 7

With `CC(C)CCC[C@@H](C)[C@H]1CC[C@H]2[C@@H]3CC=C4C[C@@H](O)CC[C@]4(C)[C@H]3CC[C@]12C` [cholesterol] the “effect of cholesterol application on rBASIC dependent current” value (rat BASIC [1]; 2 mM MβCD-balanced water-soluble cholesterol, 10 sec) was “did not affect the rBASIC dependent current”.
With `C[C@H](CCC(=O)NCCS(=O)(=O)O)[C@H]1CC[C@H]2[C@@H]3[C@@H](O)C[C@@H]4C[C@H](O)CC[C@]4(C)[C@H]3CC[C@]12C` [UDCA, tauroursodeoxycholic acid] the “activation of ASIC1a” value (rat ASIC1a) was “not activate ASIC1a”, the “activation by UDCA of chimeras rASIC1a-rBASIC-TM1, -TM2, -TM” value [2] was “activated by UDCA” and the “UDCA sensitivity of chimera rASIC1a-rBASIC-loop” value (rASIC1a-rBASIC-loop) was “weakly sensitive to UDCA”. The “response to UDCA of chimeras rASIC1a-rBASIC-loop 1, -2 and -3” value [3] was “responded weakly to UDCA”, the “activity of mouse BASIC, normalized to the amiloride-sensitive current” value (“activity of mouse BASIC, normalized” for short) (mouse BASIC [4]; [10]) was 1.3 fold and the “activation by UDCA of chimeras loop 1–2 and loop 2–3” value [5] was “weakly activated by UDCA”. The “response to UDCA of chimera rBASIC-rASIC1a-loop compared to removal of divalent cations” value (rBASIC-rASIC1a-loop) was “extremely weak”, the EC50 (rat BASIC [1]) was 2.7 ± 0.06 mM and the “activation of BASIC” value (rat BASIC [1]; 2 mM UDCA) was “strongly activated BASIC”. For the same compound, the “maximum current at 5 mM UDCA” value (rat BASIC [1]; 5 mM UDCA, n = 10) was 23.8±2.4 µA.
In the case of `O=C(O)c1ccccc1Nc1cccc(C(F)(F)F)c1` [FFA, flufenamic acid], the “activation of rat BASIC” value (rat BASIC [6]) is given as “activated”, the “effect on mouse BASIC” value (mouse BASIC [7]) is given as “not affected” and the “activation of human BASIC” value (human BASIC) is given as “activated”.
For `CN(C)CCCN1c2ccccc2Sc2ccc(Cl)cc21` [CPZ, chlorpromazine], the “activity of mouse BASIC, normalized” value (mouse BASIC [4]; [10]) was 0.95 fold, the solubility [8] was ≤ 500 µM and the “decrease of the response of BASIC to 2 mM UDCA” value (rat BASIC [1]; 0.5 mM CPZ co-applied with 2 mM UDCA) was 2.0 fold.
In the case of `[Gd+3]` [Gd^3+, gadolinium], the “effect on UDCA-dependent activation of BASIC” value (rat BASIC [1]; 100 µM Gd^3+ co-applied with 2 mM UDCA) is reported as “completely abolished”, the IC50 (rat BASIC [1]; in the absence of UDCA (resting state), n = 8) is reported as 102 ± 34 µM and the IC50 (rat BASIC [1]; in the presence of 2 mM UDCA, n = 8) is reported as 19 ± 7 µM. For the same compound, the “response of non-injected control oocytes” value (non-injected oocytes) was “did not respond”.
In the case of MβCD, the “effect of cholesterol removal on rBASIC activity” value (rat BASIC [1]; 20 mM MβCD, approximately 2 h, control, −Ca^2+ and 2 mM UDCA) is reported as “does not influence rBASIC activity”.
In the case of `CCCCCCCCCCCCOS(=O)(=O)[O-].[Na+]` [SDS], the “activation of ASIC1a” value (rat ASIC1a) is reported as “not activated”, the “activity of mouse BASIC, normalized” value (mouse BASIC [4]; [10]) is reported as 1.5 fold and the “activation of HyNaC 2/3/5” value [9] is reported as “not activated”. The “increase of the low-activity (DIMI-sensitive) BASIC currents” value (from here on “increase of the low-activity”) (rat BASIC [1]; [11]) was 2 fold, the “effect on currents when applied in the presence of diminazene” value (“effect on currents when applied” for short) (rat BASIC [1]; co-applied with diminazene) was “did not increase currents” and the “current in un-injected oocytes” value (non-injected oocytes; [12]) was 34±0.6 nA.
With `CCCCCCCCCCCC(=O)N(C)CC(=O)O` [NL, N-lauroylsarcosine] the “activation of ASIC1a” value (rat ASIC1a) was “not activated”, the “activity of mouse BASIC, normalized” value (mouse BASIC [4]; [10]) was 1.5 fold and the “activation of HyNaC 2/3/5” value [9] was “not activated”. For the same compound, the “increase of the low-activity” value (rat BASIC [1]; [11]) was 3 fold, the “effect on currents when applied” value (rat BASIC [1]; co-applied with diminazene) was “did not increase currents” and the “current in un-injected oocytes” value (non-injected oocytes; [12]) was 35±0.8 nA.
With Triton-X 100 the “activation of ASIC1a” value (rat ASIC1a) was “not activated”, the “activity of mouse BASIC, normalized” value (mouse BASIC [4]) was 1.2 fold and the “activation of HyNaC 2/3/5” value [9] was “not activated”. For the same compound, the “effect on currents when applied” value (rat BASIC [1]) was “inhibited by diminazene”, the “increase of the low-activity” value (rat BASIC [1]) was 1.5 fold and the “current in un-injected oocytes” value (non-injected oocytes) was 35±0.8 nA.
For `N=C(N)c1ccc(/N=N/Nc2ccc(C(=N)N)cc2)cc1` [diminazene], the “effect of diminazene on BASIC currents” value (rat BASIC [1]; 100 µM DIMI alone or together with SDS, NL or Triton-X 100) was “inhibited BASIC currents” and the “DIMI-sensitive current in the absence of stimulatory substances” value (rat BASIC [1]; n = 8) was 0.25±0.03 µA.
